Paper PMC7268545, “Development of a QPatch-Automated Electrophysiology Assay for Identifying TMEM16A Small-Molecule Inhibitors” (Assay and Drug Development Technologies, 2020)
Read-outs that look alike come from different tables or passages of the source.

Target: T1, human ANO1 channel (isoform acd) (Homo sapiens, UniProt Q5XXA6)
T1 construct: host or cells: HEK293T
T1 sequence (Q5XXA6 1-986): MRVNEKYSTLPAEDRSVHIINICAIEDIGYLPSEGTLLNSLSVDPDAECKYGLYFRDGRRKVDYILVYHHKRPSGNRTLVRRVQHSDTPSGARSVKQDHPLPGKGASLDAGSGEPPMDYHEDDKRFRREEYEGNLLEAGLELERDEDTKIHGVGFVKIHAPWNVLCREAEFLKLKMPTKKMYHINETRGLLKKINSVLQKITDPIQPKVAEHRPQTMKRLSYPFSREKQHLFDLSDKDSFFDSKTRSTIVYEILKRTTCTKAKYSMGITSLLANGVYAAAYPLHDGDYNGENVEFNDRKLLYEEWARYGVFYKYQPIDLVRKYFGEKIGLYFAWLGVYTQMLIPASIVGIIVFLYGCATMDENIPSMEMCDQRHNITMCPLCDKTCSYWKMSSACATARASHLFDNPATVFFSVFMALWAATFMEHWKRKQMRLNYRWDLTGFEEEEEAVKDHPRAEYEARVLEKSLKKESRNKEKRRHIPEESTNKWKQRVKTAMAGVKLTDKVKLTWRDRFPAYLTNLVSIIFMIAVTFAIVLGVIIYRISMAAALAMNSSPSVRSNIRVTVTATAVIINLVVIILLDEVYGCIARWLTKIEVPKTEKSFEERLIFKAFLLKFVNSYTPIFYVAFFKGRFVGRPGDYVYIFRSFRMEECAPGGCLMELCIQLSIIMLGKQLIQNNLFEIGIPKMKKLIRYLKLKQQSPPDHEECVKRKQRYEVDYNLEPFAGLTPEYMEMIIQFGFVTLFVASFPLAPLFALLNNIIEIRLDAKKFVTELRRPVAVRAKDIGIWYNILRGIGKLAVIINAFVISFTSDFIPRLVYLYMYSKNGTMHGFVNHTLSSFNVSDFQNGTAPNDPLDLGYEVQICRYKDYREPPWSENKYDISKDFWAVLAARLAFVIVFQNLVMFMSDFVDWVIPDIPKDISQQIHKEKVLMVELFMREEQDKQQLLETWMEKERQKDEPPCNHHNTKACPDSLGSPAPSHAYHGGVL
Experiment: QPatch-48 single-concentration/multiple-addition (extended incubation) protocol
Assay type: cell-based
Method: As mentioned, due to the nature of the channel and its rundown issues, time limitations exist for recording. Therefore, each concentration of compound is added to the cell for a duration of 60 s. It is possible that the IC50 is shifted for those compounds that require a longer time to act on the channel. To account for this, a single-concentration/multiple-addition protocol was established (Fig. 6). […] This led us to wonder if we were missing the full response to the concentration before the next liquid period began and the more concentrated, cumulative addition was applied to the cell. The original application protocol was amended to allow for two 4-min incubations with the same concentration of compound. The total length of the assay is roughly 15 min, with two 1-min saline additions to stabilize current, two 1-min vehicle additions to account for any DMSO effects, and two 4-min compound additions, ending with two 1-min saline additions to look for washout effects. The same IV voltage protocol was used as well as the same whole-cell conditions and solutions. When niclosamide was run with this extended incubation protocol, the IC50 was four times as potent (Fig. 6), aligning nicely with the other in-house assays that were run. A DMSO condition was included to account for any rundown that occurred, with the result of 92% current remaining at the end of the assay. Therefore, the block observed with niclosamide additions was not due to rundown. When 240 nM was added, the current plateaued at ∼60% current amplitude. […] Any compounds that result in partial inhibition with the original assay can be run on the multiple-addition assay to see if they require more time to inhibit the channel.
Fig. 6. Current time plots of the modified protocol with multiple additions of a single concentration. Top: IT plot when 240 nM niclosamide is added to a cell. Bottom: IT plot when 1.2 μM niclosamide is added to a cell.

current amplitude at plateau (240 nM): ~60% | block in current after first 4-min incubation (1.2 μM, after first addition): 50% | final block after second addition (1.2 μM, after second 4-min addition): 78% | IC50 (Fig. 6 table in picture, read-out: IC50, Single Concentration- Multiple Additions): 352 nM | IC50 (single concentration, multiple additions, Fig. 6 curve, read-out: IC50, modified single-concentration assay): 352 nM | IC50 (two 4-min additions of the same concentration, n = 2, read-out: final IC50 (mean ± SD)): 221 ± 185 nM
SMILES: O=C(Nc1ccc([N+](=O)[O-])cc1Cl)c1cc(Cl)ccc1O [Niclosamide]
